# Measured values reported in patent publication US7186730B2, “Bicyclic nitrogen-containing heterocyclic derivatives for use as antibacterials” (priority 2001, dated 2007).
# Counter-ions that a name gives are not always drawn.
# Test: MIC of test compounds against various organisms
# Assay type: cell-based
# Conditions: not given
# Description: The MIC (μg/ml) of test compounds against various organisms was determined: S. aureus Oxford, S. aureus WCUH29, S. pneumoniae 1629, S. pneumoniae N1387, S. pneumoniae ERY 2, E. faecalis I, E. faecalis 7,H. influenzaeQ1, H. influenzae NEMC1, M. catarrhalis 1502.
row,Compound,MIC [mg/L]
1,"COc1ccc2nccc(NC(=O)C3CCN(CC(O)c4cnc5c(c4)NC(=O)CS5)CC3)c2n1 (stereo not drawn) [Example 15, R and S-1-[2-Hydroxy-2-(2-oxo-2,3-dihydro-1H-pyrido[2,3-b][1,4]thiazin-7-yl)-ethyl]-piperidine-4-carboxylic acid (6-methoxy-[1,5]naphthyridin-4-yl)-amide hydrochloride]",≤ 4
2,"COc1ccc2nccc(OCC3CCN(CCc4ccc5c(c4)OCCO5)CC3)c2n1 [Example 21, 8-{1-[2-(2,3-Dihydro-benzo[1,4]dioxin-6-yl)-ethyl]-piperidin-4-ylmethoxy}-2-methoxy-[1,5]naphthyridine hydrochloride]",≤ 64
3,"COc1ccc2nccc(NC(=O)C3CCN(CCc4cc5c(cn4)OCCO5)CC3)c2n1 [Example 16, 1-[2-(2,3-Dihydro-[1,4]dioxino[2,3-c]pyridin-7-yl)-ethyl]-piperidine-4-carboxylic acid (6-methoxy-[1,5]naphthyridin-4-yl)-amide hydrochloride]",≤ 4

# Same assay, conditions: versus all these organisms (10-strain panel); read-out: MIC
row,Compound,MIC [mg/L]
1,"COc1ccc2nccc(NC(=O)C3CCN(CCc4ccc5c(c4)OCO5)CC3)c2n1 [Example 2, 1-(2-Benzo[1,3]dioxol-5yl-ethyl)-piperidine4-carboxylic acid (6-methoxy-[1,5]naphthyridin-4-yl)amide, dioxalate]",≤ 4
2,"COc1ccc2nccc(NC(=O)C3CCN(CCc4ccc5c(c4)OCCO5)CC3)c2n1 [Example 3, 1-[2-(2,3-Dihydro-benzo[1,4]dioxin-6-yl)-ethyl]-piperidine-4-carboxylic acid (6-methoxy-[1,5]naphthyridin-4-yl)-amide, dioxalate]",≤ 4
3,"COc1ccc2nccc(NC(=O)C3CCN(CCc4ccc5c(c4)NC(=O)CS5)CC3)c2n1 [Example 1, 1-[2-(3-Oxo-3,4-dihydro-2H-benzo[1,4]thiazin-6-yl)-ethyl]-piperidine-4-carboxylic acid (6methoxy-[1,5]naphthyridinylaramide oxalate]",≤ 4
4,"COc1ccc2nccc(NC(=O)C3CCN(CC(=O)c4ccc5c(c4)OCCO5)CC3)c2n1 [Example 14, 1-[2-(2,3-Dihydro-benzo[1,4]dioxin-6-yl)-2-oxo-ethyl]-piperidine-4-carboxylic acid (6methoxy-[1,5]naphthyridin-4-yl)-amide oxalate]",≤ 16
5,"COc1ccc2nccc(NC(=O)C3CCN(CCc4ccc5nsnc5c4)CC3)c2n1 [Example 5, 1-(2-Benzo[1,2,5]thiadiazol-5-yl-ethyl)-piperidine-4-carboxylic acid (6-methoxy-[1,5]naphthyridin-4-yl)-amide, dioxalate]",≤ 64

# Now from value to compound:
row,MIC [mg/L],Compound
1,≤ 64,"COc1ccc2nccc(NC(=O)C3CCN(CCc4ccc5c(c4)oc(=O)n5C)CC3)c2n1 [Example 6, 1-[2-(3-Methyl-2-oxo-2,3-dihydro-benzooxazol-6-yl)-ethyl]-piperidine-4-carboxylic acid (6-methoxy-[1,5]naphthyridin-4-yl)-amide, dioxalate]"
2,≤ 16,"COc1ccc2nccc(OCC3CCN(CC(O)c4ccc5c(c4)NC(=O)CS5)CC3)c2n1 (stereo not drawn) [Example 17, R,S-6-{1-Hydroxy-2-[4-(6methoxy-[1,5]naphthyridin-4-yloxymethyl)-piperidin-1-yl]-ethyl}-4H-benzo[1,4]thiazin-3-one hydrochloride]"
3,≤ 4,"COc1ccc2nccc(NC(=O)C3CCN(CCc4nc5c(F)cccc5[nH]4)CC3)c2n1 [Example 4, 1-[2-(4-Fluoro-1H-benzoimidazol-2-yl)-ethyl]-piperidine-4-carboxylic acid (6-methoxy-[1,5]naphthyridin-4-yl)-amide, dioxalate]"
4,≤ 64,"COc1ccc2nccc(NC(=O)C3CCN(CC(=O)c4ccc5c(c4)NC(=O)CS5)CC3)c2n1 [Example 11, 1-[2-Oxo-2-(3-oxo-3,4dihydro-2H-benzo[1,4]thiazin-6-yl)-ethyl]-piperidine-4-carboxylic acid (6-methoxy-[1,5]naphthyridin-4-yl)-amide oxalate]"
5,≤ 4,"COc1ccc2nccc(NC(=O)C3CCN(CC(=O)c4ccc5c(c4)NC(=O)CO5)CC3)c2n1.O=C(O)C(=O)O [Example 13, 1-[2-Oxo-2-(3-oxo-3,4-dihydro-2H-benzo[1,4]oxazin-6-yl)ethyl]-piperidine-4-carboxylic acid (6-methoxy-[1,5]naphthyridin-4-yl)-amide oxalate]"
6,≤ 4,"COc1ccc2nccc(NC(=O)C3CCN(CC(O)c4ccc5c(c4)NC(=O)CS5)CC3)c2n1 (stereo not drawn) [Example 12, R,S-1-[2-Hydroxy-2-(3-oxo-3,4-dihydro-2H-benzo[1,4]thiazin-6-yl)-ethyl]-piperidine-4-carboxylic acid (6methoxy-[1,5]naphthyridin-4-yl)-amide oxalate]"
7,≤ 16,"COc1ccc2nccc(NC(=O)C3CCN(CCc4ccc5c(c4)NC(=O)CO5)CC3)c2n1 [Example 7, 1-[2-(3-Oxo-3,4-dihydro-2H-benzo-[1,4]oxazin-6-yl)ethyl]-piperidine-4-carboxylic acid (6-methoxy-[1,5]naphthyridin-4-yl)-amide, dioxalate]"
8,≤ 64,"COc1ccc2nccc(NC(=O)C3CCN(CCc4cnc5ccccc5n4)CC3)c2n1 [Example 9, 1-(2-Quinoxalin-2-yl-ethyl)piperidine-4-carboxylic acid (6-methoxy-[1,5]naphthyridin-4-yl)-amide]"
9,≤ 4,"COc1ccc2nccc(NC(=O)C3CCN(CC(O)c4ccc5c(c4)OCCO5)CC3)c2n1 (stereo not drawn) [Example 18, R,S-1-[2-(2,3-Dihydro-benzo[1,4]dioxin-6-yl)-2-hydroxy-ethyl]-piperidine-4-carboxylic acid (6-methoxy-[1,5]naphthyridin-4-yl)-amide oxalate]"
10,≤ 16,"COc1ccc2nccc(NC(=O)C3CCN(CC(O)c4ccc5c(c4)NC(=O)CO5)CC3)c2n1 (stereo not drawn) [Example 19, R,S-1-[2-Hydroxy-2-(3-oxo-3,4-dihydro-2H-benzo[1,4]oxazin-6-yl)-ethyl]-piperidine-4-carboxylic acid (6-methoxy-[1,5]naphthyridin-4-yl)-amide oxalate]"
